# Test results from US12600725B2 (Memorial Sloan-Kettering Cancer Center, priority 2013, dated 2026).
# Tests used:
# Type in all cases: cell-based
# [1] = system: HER2 at the plasma membrane of SKBr3 cells; experiment: Immunofluorescence of HER2 architecture at the plasma membrane
# Procedure: We next investigated the biological significance of the unique association of HER^2 with Grp94 at the plasma membrane of SKBr3 cells. Because the Grp94 inhibitors described here target the ATP-binding pocket of Grp94, they affect Grp94 chaperone activity. Therefore we hypothesized that Grp94 may act on HER^2 at the plasma membrane to stabilize the protein and to regulate its function.
# Immunofluorescence. Cells were seeded and grown onto culture slides (BD Falcon) for 24 hrs. After washing with cold PBS, cells were fixed by treating at 4° C. for 20 min with 4% paraformaldehyde in PBS, permeabilized with 0.1% Triton X-100 in PBS containing 10% FBS for 10 min, and blocked with 2% BSA for 1 hr. After washing for four times with PBS, primary antibodies were added onto the chambers and cell were incubated overnight at 4° C., washed again with PBS followed by incubation with the secondary antibody for 1 hr at room temperature. Cell were washed and then mounted and observed under microscope (Leica Upright Confocal SP5). The primary antibodies used in the assay are against: HER^2 (Zymed, 28004), Grp94 (Stressgen, SPA-850), Hsp70 (Stressgen, SPA-810), LAMP1-FITC (Abcam, ab25406), EEA1 (Abcam, ab70521), 58K Golgi-FITC (Abcam, ab27043) and Calnexin (BD, 610523).
# CFPAC cells = experiment: Cell viability assessment (CellTiter-Glo)
# [2] = system: EGFR overexpressing triple negative breast cancer cells; experiment: Apoptosis (Annexin V / 7AAD, cleaved PARP) in triple negative breast cancer cells
# Procedure: The Grp94 inhibitors of the disclosure can be used to treat patients with EGFR overexpressing triple negative breast cancer. As shown in FIGS. 13a-c, EGFR overexpressing triple negative breast cancer cells are sensitive to the selective Grp94 inhibitor PU-WS13. The sensitivity of the EGFR overexpressing triple negative breast cancer cells was tested for the presence of apoptotic cells by Annexin V staining (13a, 13b) and by immunoblotting for the presence of cleaved PARP (13c). […] The Grp94 inhibitors of the disclosure can be used to treat patients with EGFR overexpressing pancreatic cancer. […]
# Cell fractionation and immunoblotting. […] Protein concentrations were determined using BCA kit (Pierce) according to the manufacturer's instructions. […]
# Cell cycle and apoptosis assessment. Cell cycle and apoptosis were assessed by flow cytometry after single staining with propidium iodide (PI, BD Pharmingen) or double staining with AnnexinV-FITC (BD Pharmingen) and 7AAD (BD Pharmingen), respectively. […] DNA content was measured by BD LSRII flow cytometer and cell further analyzed using program of cell cycle analysis in FloJo (Ashland, OR). […] Signals from FL1 and FL3 channels were collected by MACSQuant analyzer and further analyzed using FloJo. […]
# A673 Ewing sarcoma cells = experiment: Apoptosis assessment (Annexin V / 7AAD)
# Procedure: (§1) The disclosure provides evidence that Grp94 inhibitors are efficacious in treating cancer with altered expression of the IGF1R and where the receptor is necessary for pathogenesis and tumor progression.
# (§2) Cell cycle and apoptosis assessment. Cell cycle and apoptosis were assessed by flow cytometry after single staining with propidium iodide (PI, BD Pharmingen) or double staining with AnnexinV-FITC (BD Pharmingen) and 7AAD (BD Pharmingen), respectively. Specifically, for cell cycle analysis, cells were washed twice with cold PBS and fixed in 70% ethanol overnight at 4° C. Fixed cells were collected at 1800 rpm for 10 min and stained with PBS containing PI and DNase-free RNase A (Sigma-Aldrich) for 1 h at room temperature in the dark. DNA content was measured by BD LSRII flow cytometer and cell further analyzed using program of cell cycle analysis in FloJo (Ashland, OR). The chicken erythrocyte nuclei singlets (CEN, Biosure) were used as the reference. For apoptosis assessment, live cells were collected, washed twice with cold PBS, resuspended in Binding Buffer and stained with AnnexinV-FITC and 7AAD for 15 min at room temperature in the dark. Signals from FL1 and FL3 channels were collected by MACSQuant analyzer and further analyzed using FloJo. Early apoptosis was defined as AnnexinV+/7AAD−, and late apoptosis was observed as AnnexinV+/7AAD+.
# TC71 Ewing sarcoma cells = experiment: Apoptosis assessment (Annexin V / 7AAD)
# Procedure: as §1, §2
compound,measurement,setting,value
CC(C)NCCCn1c(Sc2cc(Cl)cc(Cl)c2)nc2c(N)ncnc21 [PU-WS13],effect on HER2 architecture at the plasma membrane,[1],disruption of the circular architecture of HER^2 at the plasma membrane
same,effect on cell growth,CFPAC cells,modest effect
same,"sensitivity (apoptosis, cleaved PARP)",[2],sensitive
same,induction of apoptosis,A673 Ewing sarcoma cells,capable of inducing apoptosis
same,induction of apoptosis,TC71 Ewing sarcoma cells,capable of inducing apoptosis
